{"source": "patent US6770660B2", "about": "“Method for inhibiting platelet aggregation” (Artery LLC, priority 2002, dated 2004)", "key": {"[1]": {"details": "for major bleeding episodes: patients", "protocol": "Patients were treated with a 20 μg/kg bolus of tirofiban hydrochloride followed by a 0.15 μg/kg/min infusion for 18-24 hours or a 25 μg/kg bolus followed by the same infusion. Enrollment of subjects in the panel with the 20 μg/kg bolus (n=15/panel) was completed and the clinical effects and pharmacodynamic properties were evaluated before subjects were enrolled in the panel with the 25 μg/kg bolus. Patients were treated with aspirin (325 mg before the procedure and daily) and unfractionated heparin (target activated clotting time 250 seconds). Clopidogrel (300 mg and then 75 mg daily)(commercially available as PLAVIX®) was administered at least 45 minutes after the start of tirofiban hydrochloride. All other medications were administered at the discretion of the attending cardiologist. Sheath removal was performed when the activated clotting time was less than 175 seconds unless a closure device was used. […] The occurrence of 3 major bleeding episodes (as defined by the American College of Cardiology Task force (Cannon et al. J. Am. Coll. Cardiol. (2001) vol. 38 pp. 2114-30) in each panel was a pre-specified criteria for termination of the study."}, "[2]": {"test_system": "capacity of platelets to bind fibrinogen", "details": "25 μg/kg (high) bolus compared with 20 μg/kg bolus; 1 μM adenosine diphosphate; flow cytometry", "procedure": "Blood was obtained after 5 minutes for analysis by flow cytometry. […] Blood for flow cytometry was anticoagulated with corn trypsin inhibitor, a specific inhibitor of coagulation factor XIIa without effect on other coagulation factors (Schneider et al., Circulation (1997) vol. 96 pp. 2877-83). […] For flow cytometry, samples were processed and platelets were fixed at each site. […] Light transmission aggregometry and rapid platelet function analyzer were performed with […] -chloromethyl ketone as the anticoagulant and flow cytometry was performed with blood anticoagulated with corn trypsin inhibitor."}, "platelet aggregation [3]": {"test_system": "platelet aggregation", "details": "patients, 15 through 60 minutes, 20 μM adenosine diphosphate, monohydrochloride", "protocol": "Patients were treated with a 20 μg/kg bolus of tirofiban hydrochloride followed by a 0.15 μg/kg/min infusion for 18-24 hours or a 25 μg/kg bolus followed by the same infusion. Enrollment of subjects in the panel with the 20 μg/kg bolus (n=15/panel) was completed and the clinical effects and pharmacodynamic properties were evaluated before subjects were enrolled in the panel with the 25 μg/kg bolus. Patients were treated with aspirin (325 mg before the procedure and daily) and unfractionated heparin (target activated clotting time 250 seconds). Clopidogrel (300 mg and then 75 mg daily)(commercially available as PLAVIX®) was administered at least 45 minutes after the start of tirofiban hydrochloride. All other medications were administered at the discretion of the attending cardiologist. Sheath removal was performed when the activated clotting time was less than 175 seconds unless a closure device was used."}, "platelet aggregation [4]": {"test_system": "platelet aggregation", "details": "patients; 10 μg/kg bolus followed by 0.15 μg/kg/min infusion; 15 to 60 minutes after bolus; monohydrochloride; cited from earlier work"}}, "note": "Where a name gives a salt, the structure may show the parent alone. Read-outs that look alike come from different tables or passages of the source."}
{"molecule": "CCCCS(=O)(=O)N[C@@H](Cc1ccc(OCCCCC2CCNCC2)cc1)C(=O)O", "note": "[tirofiban hydrochloride, N-(butylsulfonyl)-O-[4-(4-piperidinyl)butyl]-L-tyrosine monohydrochloride]", "values": [{"measurement": "undesirable side effects", "setting": "[1]; about 25 μg/kg bolus compared with conventional bolus", "result": "absence of increased undesirable side effects"}, {"measurement": "major bleeding episodes", "setting": "[1]; 20 μg/kg bolus followed by 0.15 μg/kg/min infusion for 18-24 hours", "result": "No major bleeding episode occurred"}, {"measurement": "major bleeding episodes", "setting": "[1]; 25 μg/kg bolus followed by 0.15 μg/kg/min infusion for 18-24 hours", "result": "No major bleeding episode occurred"}, {"measurement": "extent of inhibition of the capacity to bind fibrinogen", "setting": "[2]", "result": "greater"}, {"measurement": "average extent of inhibition of platelet aggregation / % Inhibition of platelet aggregation 15-60 minutes after bolus injection", "setting": "platelet aggregation [3]; 20 μg/kg bolus followed by 0.15 μg/kg/min infusion", "result": "84-89%"}, {"measurement": "average extent of inhibition of platelet aggregation / % Inhibition of platelet aggregation 15-60 minutes after bolus injection", "setting": "platelet aggregation [3]; 25 μg/kg bolus followed by 0.15 μg/kg/min infusion, listed as tirofiban", "result": "92-95%"}, {"measurement": "average extent of inhibition of platelet aggregation / % Inhibition of platelet aggregation 15-60 minutes after bolus injection", "setting": "platelet aggregation [3]; 25 μg/kg bolus followed by 0.15 μg/kg/min infusion", "result": "greater than 90%"}, {"measurement": "average inhibition of maximal aggregation / % Inhibition of platelet aggregation 15-60 minutes after bolus injection", "setting": "platelet aggregation [4]", "result": "61-66%"}]}
